Where a SMILES comes first, the peptide text is derived from it. The star is where a group is joined. Cbz = O=C(OCc1ccccc1)*
Legend:
NIH3T3 cells = experiment: Flow cytometry / immunoblot of NIH3T3 cells stably expressing YFP-LOV2 domain fusions, dark vs blue light; assay type: cell-based; conditions: 10 μM MG132, blue light 2 hours, FACS analysis
Method: Genes encoding the proteins tested as fusions to the BLID domain were cloned by standard techniques in the retroviral pBMN vector encoding an iHcRed-t or iBlasticidin. The ΦNX ecotropic packaging cell line was cultured in DMEM supplemented with 10% heat-inactivated fetal bovine serum, 2 mM glutamine, 100 U/mL penicillin and 100 μg/mL streptomycin. The NIH3T3 cell line was cultured in DMEM supplemented with 10% heat-inactivated donor bovine serum, 2 mM glutamine, 100 U/mL penicillin and 100 μg/mL streptomycin. The ΦNX cells were transfected using standard Lipofectamine 2000 protocols. Viral supernatants were harvested 48 h posttransfection and filtered through a 0.45 μm nylon syringe filter. NIH3T3 cells were incubated with the retroviral supernatants supplemented with 4 μg/mL polybrene for 4-6 h at 37° C. Cells were cultured in growth media for 24 to 36 h to allow for viral integration, then assayed as described.
Twenty-four hours prior to analysis, transduced NIH3T3 cells were plated at 1×10^5 cells per well of a 12-well plate and treated with vehicle or blue light for indicated time points prior to analysis. […] Samples were analyzed at the Stanford Shared FACS Facility with 10,000 events represented.
For immunoblotting, NIH3T3 cells were washed in PBS and lysed on ice in MIPP buffer containing protease inhibitors. Protein concentration was measured by Bradford assay. […]

3T3 cells = conditions: cited from earlier work

Compound: CC(C)C[C@@H](C=O)NC(=O)[C@H](CC(C)C)NC(=O)[C@H](CC(C)C)NC(=O)OCc1ccccc1 [MG132] (Cbz-Leu-Leu-Leu-aldehyde)
- effect on light-dependent decrease in fluorescence of YFP-LOV24 (NIH3T3 cells): prevents the light-dependent decrease in fluorescence

Compound: RRRG
- fluorescence of YFP with C-terminal degron (3T3 cells): no fluorescence is observed

From patent US20140249295A1, “LIGHT-INDUCIBLE SYSTEM FOR REGULATING PROTEIN STABILITY” (The Board of Trustees Of The Leland Stanford Junior …, priority 2013, published 2014)
